The text below walks through data of patent publication US10973831B2, “Fluoropiperidine compounds as pure 5-HT 6 receptor antagonists” (SUVEN LIFE SCIENCES LIMITED, priority 2017, dated 2021).

Structures can show the parent of a compound that is named as a salt.

As a reminder, the Ki is the dissociation constant of the complex between target and ligand, obtained from inhibition or displacement. The term NOAEL denotes the highest tested level that showed no adverse finding. The term AUC denotes concentration integrated over time. Usually Cmax stands for the maximum level reached in the sampled fluid or tissue.

For data set [1], the target named is T1, recombinant human 5-HT2A (Homo sapiens, UniProt P28223).
T1 construct: purchased Perkin Elmer ES-313-M400UA
As to the kind of experiment: Determination of 5-HT2A binding ([3H]-Ketanserin radioligand, membranes). The settings on record: human 5-HT2A membranes, [3H]-Ketanserin 1.75 nM. The procedure:
Membrane preparation from recombinant human 5-HT2A cell line (Cat no. ES-313-M400UA) and radio ligand Ketanserin Hydrochloride, [Ethylene-^3H]-(R-41468) (Cat no. NET791250UC) were purchased from Perkin Elmer. All other reagents used in buffer preparation were purchased from Sigma. The final ligand concentration was 1.75 nM; non-specific determinant was 1-NP [10 μM] and 5-HT2A membrane protein (5 μg/well). 1-NP was used as a positive control. Reactions were carried out in 67 mM Tris pH 7.6 containing 0.5 mM EDTA buffer for 60 minutes at 25° C. Reaction was stopped by rapid filtration followed by six washes of the binding mixture using 96 well harvest plate (Millipore Cat no. MSFBNXB50) pre coated with 0.33% polyethyleneimine. The plate was dried and the bound radioactivity collected on the filters was determined by scintillation counting using MicroBeta TriLux. Radio ligand binding in the presence of non-labeled compound was expressed as a percent of the total binding and plotted against the log concentration of the compound. Ki values were determined using a nonlinear, iterative curve-fitting computer program of Graph pad Prism 4 software.

Data set [2] has as its target T2, recombinant human 5-HT6 receptor (Homo sapiens, UniProt P50406).
T2 construct: expressed in transfected cells
As to the kind of experiment: Determination of Kb for 5-HT6 receptor (CHO cells, pCRE-Luc reporter, cAMP). The settings on record: 10 μM serotonin, luciferase reporter. In kind it is cell-based. How it is done: Determination of Kb for 5-HT6 Receptor: A stable CHO cell line expressing recombinant human 5-HT6 receptor and pCRE-Luc reporter system was used for cell based assay. The assay offers a non-radioactive based approach to determine binding of a compound to GPCRs. In this specific assay, the level of intracellular cyclic AMP which is modulated by activation or inhibition of the receptor is measured. The recombinant cells harbor luciferase reporter gene under the control of cAMP response element. The above cells were plated in 96 well clear bottom white plates at a density of 5×10^4 cells/well using Hams F12 medium containing 10% fetal bovine serum (FBS) and incubated overnight at 37° C. and 5% CO2 followed by serum starvation for 18-20 hrs. Increasing concentrations of test compounds were added along with 10 μM serotonin in Opti-MEM to the cells. The incubation was continued at 37° C. in CO2 incubator for 4 hours. After 4 hours cells were lysed using lysis buffer and luciferase assay buffer was added to each well and counts per second were recorded using luminescence counter. From counts per second (CPS) obtained, percent binding was calculated for each well by taking 10 μM 5-HT as 100% bound and vehicle as 0% bound. The percent bound values were plotted against compound concentrations and data were analyzed using a nonlinear, iterative curve-fitting computer program of Graph pad Prism 4 software. The Kb values were calculated using concentration of the agonist used in the assay.

A short description of data set [3]: Non-clinical toxicology, repeated dose toxicity study in rat. The conditions noted are these: rat, female rats. The format is in vivo. The procedure: (§1) The safety of the example 1 of instant invention and comparator example of U.S. Pat. No. 7,378,415 were evaluated in repeated dose toxicity study in rat.
(§2) Female rats were used as experimental animals for evaluating the toxicity profile of example 1 of instant invention and the comparator example of U.S. Pat. No. 7,378,415.
(§3) During the study, female rats were dosed at incremental doses for minimum of 4 days. Toxicity assessment was done on the mortality, clinical observation, change in the body weight, feed consumption, clinical and anatomical pathology. Systemic exposures were also estimated for both of the compounds. All quantitative variables are compared with control group using one-way ANOVA followed by Dunnet's post-hoc test on GraphPad Prism Software version 4, 2003.

Data set [4] concerns Female rats. The data set is described as above. The format is in vivo. The settings on record: repeated dose toxicity. The procedure: as §1, §2, §3

T1 sequence (P28223 whole entry): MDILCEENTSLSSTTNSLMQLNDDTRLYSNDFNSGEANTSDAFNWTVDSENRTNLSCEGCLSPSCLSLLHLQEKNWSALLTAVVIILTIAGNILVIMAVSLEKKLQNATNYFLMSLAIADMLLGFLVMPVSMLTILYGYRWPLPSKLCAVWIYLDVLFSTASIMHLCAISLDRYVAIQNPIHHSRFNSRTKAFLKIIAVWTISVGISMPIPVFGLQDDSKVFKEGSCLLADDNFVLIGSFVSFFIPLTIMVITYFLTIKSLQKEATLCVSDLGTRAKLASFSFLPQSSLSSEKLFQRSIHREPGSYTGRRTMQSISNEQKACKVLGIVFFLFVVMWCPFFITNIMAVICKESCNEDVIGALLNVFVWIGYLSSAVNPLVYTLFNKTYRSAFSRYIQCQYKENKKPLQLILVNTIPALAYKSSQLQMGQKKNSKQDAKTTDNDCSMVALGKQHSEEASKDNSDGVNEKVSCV
T2 sequence (P50406 whole entry): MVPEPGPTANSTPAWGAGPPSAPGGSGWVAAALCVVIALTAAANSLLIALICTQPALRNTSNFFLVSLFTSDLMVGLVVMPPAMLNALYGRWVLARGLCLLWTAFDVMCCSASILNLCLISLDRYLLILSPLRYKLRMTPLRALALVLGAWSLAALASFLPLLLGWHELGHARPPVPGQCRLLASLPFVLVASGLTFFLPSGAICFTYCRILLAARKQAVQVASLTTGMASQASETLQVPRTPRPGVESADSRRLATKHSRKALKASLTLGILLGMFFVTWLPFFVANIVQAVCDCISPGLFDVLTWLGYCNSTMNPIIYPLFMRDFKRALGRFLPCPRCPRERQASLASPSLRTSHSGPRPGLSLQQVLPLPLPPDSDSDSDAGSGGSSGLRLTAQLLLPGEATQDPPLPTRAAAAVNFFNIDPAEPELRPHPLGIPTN

Regarding `O=S(=O)(c1ccccc1)c1ccc2c(c1)OCCN2C1CCNCC1F` (single isomer, unassigned; peak i) [Example 2, 7-Phenylsulfonyl-4-(3-fluoropiperidin-4-yl)-3,4-dihydro-2H-benzo[1,4]oxazine hydrochloride (Peak I)], in data set [1], the Ki came to 262 nM. Also, the Kb in data set [2] came out at 0.4 nM.
As to `O=S(=O)(c1ccccc1)c1ccc2c(c1)OCCN2C1CCNCC1F` (single isomer, unassigned; peak ii) [Example 3, 7-Phenylsulfonyl-4-(3-fluoropiperidin-4-yl)-3,4-dihydro-2H-benzo[1,4]oxazine hydrochloride (Peak II)], in data set [1], the Ki amounted to 113 nM. For the same compound, the Kb in data set [2] came out at 0.09 nM.
As to `O=S(=O)(c1ccccc1)c1ccc2c(c1)N(C1CCNCC1F)CCO2` (single isomer, unassigned; peak ii) [Example 15, 6-Phenylsulfonyl-4-(3-fluoropiperidin-4-yl)-3,4-dihydro-2H-benzo[1,41]oxazine (Peak II)], in data set [1], the Ki is 1660 nM. Further, in data set [2], the Kb is 1.25 nM.
Consider `O=S(=O)(c1cccc(F)c1)c1ccc2c(c1)OCCN2C1CCNCC1F` (single isomer, unassigned; peak iii) [Example 7, 7-(3-Fluorophenylsulfonyl)-4-(3-fluoropiperidin-4-yl)-3,4-dihydro-2H-benzo[1,4]oxazine hydrochloride (Peak III)], for which, in data set [1], the Ki is 19.7 nM. Besides, in data set [2], the Kb was less than 0.1 nM.
The corresponding values for `O=S(=O)(c1ccccc1)c1ccc2c(c1)OCCN2C1CCNCC1F` (single isomer, unassigned; peak iv) [Example 4, 7-Phenylsulfonyl-4-(3-fluoropiperidin-4-yl)-3,4-dihydro-2H-benzo[1,4]oxazine hydrochloride (Peak IV)] are 3930 nM and 0.4 nM.
Turning to `O=S(=O)(c1cccc(F)c1)c1ccc2c(c1)OCCN2C1CCNCC1F` (single isomer, unassigned; peak iv) [Example 8, 7-(3-Fluorophenylsulfonyl)-4-(3-fluoropiperidin-4-yl)-3,4-dihydro-2H-benzo[1,4]oxazine hydrochloride (Peak IV)], in data set [1], the Ki was 804 nM. For the same compound, in data set [2], the Kb turned out to be 19 nM.
Regarding `O=S(=O)(c1ccccc1)c1ccc2c(c1)N(C1CCNCC1F)CCO2` (single isomer, unassigned; peak iv) [Example 17, 6-Phenylsulfonyl-4-(3-fluoropiperidin-4-yl)-3,4-dihydro-2H-benzo[1,41]oxazine (Peak IV)], the Ki in data set [1] is 907 nM. The Kb in data set [2] amounted to 1.79 nM.
Regarding `O=S(=O)(c1ccccc1)c1ccc2c(c1)OCCN2C1CCNCC1` [Comparator Example, 7-Phenylsulfonyl-4-(piperidin-4-yl)-3,4-dihydro-2H-benzo[1,4]oxazine, reference compound], the Ki in data set [1] was found to be 9.02 nM. Also, in data set [2], the Kb was 0.1 nM. Besides, the NOAEL at 7 days in data set [3] (in vivo, 7-Day repeat tox) amounted to 30 mg/kg. In addition, the MTD in data set [3] (in vivo, repeated incremental doses, read-out: Maximum Tolerated Dose) was determined as 30 mg/kg. In data set [3] (plasma, repeated dose toxicity study, read-out: AUC (systemic exposure in toxicity study)), the exposure (AUC) is 4050 ng·h/mL. In addition, the Cmax in data set [3] (plasma, repeated dose toxicity study, read-out: Cmax (systemic exposure in toxicity study)) was determined as 280 ng/mL. The figures for the “Findings (mortality)” value in data set [4] (listed as Comparator example of U.S. Pat. No. 7,378,415) and in data set [4] (listed as comparator example of U.S. Pat. No. 7,378,415) were “Mortality at ≥” and “deaths were observed at doses >100 mg/kg on second day of dosing”, respectively.
